Laboratory results: patent US12466821B2 (Novartis AG, priority 2018, dated 2025)

Key:
[1] = target: human CMV DNA polymerase UL54 (Human cytomegalovirus (strain AD169) (HHV-5) (Human herpesvirus 5), UniProt P08546); assay: CMV polymerase biochemical assay (molecular beacon-based)
Outline: (§1)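 Readout was beacon fluorescence (ex 480, em 535 nm), used to derive IC50. Each dNTP was at 1.25 uM, with 200 nM primer and 100 nM beacon, after a 30-min RT inhibitor preincubation. Enzyme was 625 pM for HSV UL30 (20 min RT reaction) or 100 pM for CMV UL54 (60 min RT), both sf9-expressed MBP fusions, in pH 7.5 Tris buffer with MgCl2.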

[2] = target: human HSV DNA polymerase UL30 (Human herpesvirus 1 (strain 17) (HHV-1) (Human herpes simplex virus 1), UniProt P04293); assay: HSV polymerase biochemical assay (molecular beacon-based)
Outline: as §1

[3] = system: Luciferase-encoding HCMV, AD169 strain; assay: CMV Luciferase assay (cellular herpesvirus replication); format: cell-based; conditions: Human betaherpesvirus 5, AD169, read-out: CMV-Luc Cellular EC50
Outline: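 Neonatal human dermal fibroblasts were pretreated 1 h with compound (final 0.0159–50 μM or 0.00318–10 μM, 0.5% DMSO), then infected at MOI 1 with AD169 carrying pp28-promoter luciferase. After 72 h at 37 °C, Renilla-Glo luminescence normalized to no-virus and virus-only controls; EC50 by 4-parameter logistic model.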

## O=C(NCc1ccc(Cl)cc1)c1ccc2n(c1=O)CCN(CC1(S(=O)(=O)C3CCOCC3)CC1)C2=O [Example 105-1, N-(4-chlorobenzyl)-1,6-dioxo-2-((1-((tetrahydro-2H-pyran-4-yl)sulfonyl)cyclopropyl)methyl)-2,3,4,6-tetrahydro-1H-pyrido[1,2-a]pyrazine-7-carboxamide]
[1]
  IC50: 1.5 nM
[2]
  IC50: 39.7 nM
[3]
  EC50: 50.1 nM

## N#Cc1ccc(CNC(=O)c2cc(F)c3n(c2=O)CCN(CC2(S(=O)(=O)C4CC4)CC2)C3=O)cc1F [Example 162]
[1]
  IC50: 1.9 nM
[2]
  IC50: 79.6 nM
[3]
  EC50: 41.3 nM

## CC(=O)N(C)C1(CN2CCn3c(ccc(C(=O)NCc4ccc(Cl)cc4)c3=O)C2=O)CC1 [Example 205]
[1]
  IC50: 249 nM
[2]
  IC50: 8590 nM
[3]
  EC50: 3760 nM

## N#Cc1ccc(CNC(=O)c2ccc3n(c2=O)CCN(CCS(=O)(=O)C2CC2)C3=O)cc1F [Example 195]
[1]
  IC50: 67.1 nM
[2]
  IC50: 649 nM
[3]
  EC50: 2610 nM

## N#Cc1ccc(CNC(=O)c2ccc3n(c2=O)CCN(CC2(S(=O)(=O)CC4(C(F)(F)F)CC4)CC2)C3=O)cc1F [Example 104-3]
[1]
  IC50: 10.1 nM
[2]
  IC50: 273 nM
[3]
  EC50: 1080 nM

## CC(C)(CN)S(=O)(=O)C1(CN2CCn3c(ccc(C(=O)NCc4ccc(C#N)cc4)c3=O)C2=O)CC1 [Example 184]
[1]
  IC50: 3.9 nM
[2]
  IC50: 60.3 nM
[3]
  EC50: 31.6 nM

## O=C(NCc1ccc(Cl)cc1)c1ccc2n(c1=O)CCN(CCN1CCCS1(=O)=O)C2=O [Example 64, N-(4-chlorobenzyl)-2-(2-(1,1-dioxidoisothiazolidin-2-yl)ethyl)-1,6-dioxo-2,3,4,6-tetrahydro-1H-pyrido[1,2-a]pyrazine-7-carboxamide]
[1]
  IC50: 33.6 nM
[2]
  IC50: 181 nM
[3]
  EC50: 96.1 nM

## O=C(NCc1ccc(Cl)cc1)c1cc(Br)c2n(c1=O)CCN(CCN1CCCS1(=O)=O)C2=O [Example 124, 9-bromo-N-(4-chlorobenzyl)-2-(2-(1,1-dioxidoisothiazolidin-2-yl)ethyl)-1,6-dioxo-1,3,4,6-tetrahydro-2H-pyrido[1,2-a]pyrazine-7-carboxamide]
[1]
  IC50: 83.1 nM
[2]
  IC50: 310 nM
[3]
  EC50: 874 nM

## CN(CCN1CCn2c(ccc(C(=O)NCc3ccc(Cl)cc3)c2=O)C1=O)S(C)(=O)=O [Example 58, N-(4-chlorobenzyl)-2-(2-(N-methylmethylsulfonamido)ethyl)-1,6-dioxo-2,3,4,6-tetrahydro-1H-pyrido[1,2-a]pyrazine-7-carboxamide]
[1]
  IC50: 75.6 nM
[2]
  IC50: 846 nM
[3]
  EC50: 883 nM

## CN(CCN1CCn2c(c(C(F)F)cc(C(=O)NCc3ccc(Cl)cc3)c2=O)C1=O)S(C)(=O)=O [Example 143, N-(4-chlorobenzyl)-9-(difluoromethyl)-2-(2-(N-methylmethylsulfonamido)ethyl)-1,6-dioxo-1,3,4,6-tetrahydro-2H-pyrido[1,2-a]pyrazine-7-carboxamide]
[1]
  IC50: 649 nM
[2]
  IC50: 6310 nM
[3]
  EC50: 30600 nM

## CC(C)(C)NS(=O)(=O)C1(CN2CCn3c(ccc(C(=O)NCc4ccc(C#N)cc4)c3=O)C2=O)CC1 [Example 73-1]
[1]
  IC50: 1.5 nM
[2]
  IC50: 46.9 nM
[3]
  EC50: 93.7 nM

## CC(C)(C(=O)O)S(=O)(=O)C1(CN2CCn3c(ccc(C(=O)NCc4ccc(Cl)cc4)c3=O)C2=O)CC1 [Example 175, 2-((1-((7-((4-chlorobenzyl)carbamoyl)-1,6-dioxo-1,3,4,6-tetrahydro-2H-pyrido[1,2-a]pyrazin-2-yl)methyl)cyclopropyl)sulfonyl)-2-methylpropanoic acid]
[1]
  IC50: 0.8 nM
[2]
  IC50: 24.4 nM
[3]
  EC50: 6050 nM

## CC(C)(C)S(=O)(=O)C1(CN2CCn3c(ccc(C(=O)NCc4ccc(C#N)c(F)c4)c3=O)C2=O)CC1 [Example 26]
[1]
  IC50: 0.6 nM
[2]
  IC50: 45.5 nM
[3]
  EC50: 8.9 nM

## O=C(NCc1ccc(Cl)cc1)c1cc(F)c2n(c1=O)CCN(CCN1CCCS1(=O)=O)C2=O [Example 163]
[1]
  IC50: 23.2 nM
[2]
  IC50: 141 nM
[3]
  EC50: 370 nM

## CC(=O)NS(=O)(=O)C1(CN2CCn3c(ccc(C(=O)NCc4ccc(Cl)cc4)c3=O)C2=O)CC1 [Example 72-3, 2-((1-(N-acetylsulfamoyl)cyclopropyl)methyl)-N-(4-chlorobenzyl)-1,6-dioxo-2,3,4,6-tetrahydro-1H-pyrido[1,2-a]pyrazine-7-carboxamide]
[1]
  IC50: 0.8 nM
[2]
  IC50: 31.1 nM
[3]
  EC50: 805 nM

## CC(C)(CO)S(=O)(=O)C1(CN2CCn3c(ccc(C(=O)NCc4ccc(C#N)nc4)c3=O)C2=O)CC1 [Example 183]
[1]
  IC50: 2.9 nM
[2]
  IC50: 36.7 nM
[3]
  EC50: 145 nM

## CN(C(C)(C)C)S(=O)(=O)C1(CN2CCn3c(ccc(C(=O)NCc4ccc(C#N)cc4)c3=O)C2=O)CC1 [Example 75-1]
[1]
  IC50: 1.1 nM
[2]
  IC50: 45.9 nM
[3]
  EC50: 35.6 nM

## O=C(NCc1ccc(F)cc1)c1ccc2n(c1=O)CCN(CC1(S(=O)(=O)C3CC3)CC1)C2=O [Example 3-2]
[1]
  IC50: 3 nM
[2]
  IC50: 78.7 nM
[3]
  EC50: 84.8 nM

## O=C(NCc1ccc(Cl)cc1)c1ccc2n(c1=O)CCN(CC1(S(=O)(=O)N3CCC3)CC1)C2=O [Example 87, 2-((1-(azetidin-1-ylsulfonyl)cyclopropyl)methyl)-N-(4-chlorobenzyl)-1,6-dioxo-2,3,4,6-tetrahydro-1H-pyrido[1,2-a]pyrazine-7-carboxamide]
[1]
  IC50: 1.2 nM
[2]
  IC50: 35.1 nM
[3]
  EC50: 25.7 nM

## N#CC1(CS(=O)(=O)C2(CN3CCn4c(ccc(C(=O)NCc5ccc(Cl)cc5)c4=O)C3=O)CC2)CC1 [Example 110, N-(4-chlorobenzyl)-2-((1-(((1-cyanocyclopropyl)methyl)sulfonyl)cyclopropyl)methyl)-1,6-dioxo-1,3,4,6-tetrahydro-2H-pyrido pyrazine-7-carboxamide]
[1]
  IC50: 1.9 nM
[2]
  IC50: 33.5 nM
[3]
  EC50: 81.7 nM

## COC1(S(=O)(=O)C2(CN3CCn4c(ccc(C(=O)NCc5ccc(C#N)cc5)c4=O)C3=O)CC2)CC1 [Example 189]
[1]
  IC50: 1.1 nM
[2]
  IC50: 59.8 nM
[3]
  EC50: 55.7 nM

## N#Cc1ccc(CNC(=O)c2ccc3n(c2=O)CCN(CC2(N4CCOC4=O)CC2)C3=O)cc1 [Example 89-2]
[1]
  IC50: 174 nM
[2]
  IC50: 2520 nM
[3]
  EC50: 3330 nM

## Cc1cc(C(=O)NCc2ccc(Cl)cc2)c(=O)n2c1C(=O)N(CC1(N(C)S(C)(=O)=O)CC1)CC2 [Example 149]
[1]
  IC50: 112 nM
[2]
  IC50: 2200 nM
[3]
  EC50: 7910 nM

## CS(=O)(=O)C1(CN2CCn3c(c(C4CC4)cc(C(=O)NCc4ccc(Cl)cc4)c3=O)C2=O)CC1 [Example 132]
[1]
  IC50: 3.1 nM
[2]
  IC50: 138 nM
[3]
  EC50: 70.7 nM

## C[C@H](CCO)S(=O)(=O)C1(CN2CCn3c(ccc(C(=O)NCc4ccc(Cl)cc4)c3=O)C2=O)CC1 (single isomer, unassigned) [Example 6, N-(4-chlorobenzyl)-2-((1-((4-hydroxybutan-2-yl)sulfonyl)cyclopropyl)methyl)-1,6-dioxo-2,3,4,6-tetrahydro-1H-pyrido[1,2-a]pyrazine-7-carboxamide]
[1]
  IC50: 2.4 nM
[2]
  IC50: 54.8 nM
[3]
  EC50: 92.8 nM

## N#Cc1ccc(CNC(=O)c2ccc3n(c2=O)CCN(CC2(S(=O)(=O)[C@H]4CC4(F)F)CC2)C3=O)cc1 (single isomer, unassigned) [Example 100-1]
[1]
  IC50: 1.4 nM
[2]
  IC50: 48.2 nM
[3]
  EC50: 93.6 nM

## N#Cc1ccc(CNC(=O)c2ccc3n(c2=O)CCN(CC2(S(=O)(=O)C4CCNC4)CC2)C3=O)cc1F (stereo not drawn) [Example 81-1]
[1]
  IC50: 3.8 nM
[2]
  IC50: 152 nM
[3]
  EC50: 1070 nM

## N#Cc1ccc(CNC(=O)c2ccc3n(c2=O)CCN(CC2(S(=O)(=O)[C@@H]4CC4(F)F)CC2)C3=O)cc1Cl (single isomer, unassigned) [Example 102-2]
[1]
  IC50: 1.5 nM
[2]
  IC50: 162 nM
[3]
  EC50: 85.2 nM

## CN1CC(S(=O)(=O)C2(CN3CCn4c(ccc(C(=O)NCc5ccc(C#N)c(F)c5)c4=O)C3=O)CC2)C1 [Example 17, N-(4-cyano-3-fluorobenzyl)-2-((1-((1-methylazetidin-3-yl)sulfonyl)cyclopropyl)methyl)-1,6-dioxo-2,3,4,6-tetrahydro-1H-pyrido[1,2-a]pyrazine-7-carboxamide]
[1]
  IC50: 14.7 nM
[2]
  IC50: 380 nM
[3]
  EC50: 905 nM

## CN1CCC(S(=O)(=O)C2(CN3CCn4c(ccc(C(=O)NCc5ccc(C#N)cc5)c4=O)C3=O)CC2)C1 (stereo not drawn) [Example 81-4]
[1]
  IC50: 23.3 nM
[2]
  IC50: 474 nM
[3]
  EC50: 1080 nM

## C[S@@+]([O-])C1(CN2CCn3c(ccc(C(=O)NCc4ccc(C#N)cc4)c3=O)C2=O)CC1 [Example 68-2]
[1]
  IC50: 62.2 nM
[2]
  IC50: 2730 nM
[3]
  EC50: 2860 nM

## CS(=O)(=O)CCN1CCn2c(c(C#N)cc(C(=O)NCc3ccc(Cl)cc3)c2=O)C1=O [Example 125, N-(4-chlorobenzyl)-9-cyano-2-(2-(methylsulfonyl)ethyl)-1,6-dioxo-1,3,4,6-tetrahydro-2H-pyrido[1,2-a]pyrazine-7-carboxamide]
[1]
  IC50: 566 nM
[2]
  IC50: 1010 nM
[3]
  EC50: 20200 nM

## CC(C)(C)S(=O)(=O)C1(CN2CCn3c(ccc(C(=O)NCc4ccc(C#N)cc4)c3=O)C2=O)CC1 [Example 27]
[1]
  IC50: 0.3 nM
[2]
  IC50: 25.2 nM
[3]
  EC50: 6.8 nM

## CN(C1(CN2CCn3c(c(F)cc(C(=O)NCc4ccc(Cl)cc4)c3=O)C2=O)CC1)S(C)(=O)=O [Example 166]
[1]
  IC50: 173 nM
[2]
  IC50: 7700 nM
[3]
  EC50: 10000 nM
